Read-outs that look alike come from different tables or passages of the source.
Target: T1, recombinant human NaV1.8 stably transfected HEK cells (Homo sapiens, UniProt Q9Y5Y9)
T1 construct: expressed in transfected cells; host or cells: HEK cells, stably transfected
Test: Compound profiling on NaV1.8, human NaV1.8 cell line, SyncroPatch384PE automated patch clamp assay (Example 102, first set of compounds, Table 16)
Format: cell-based
Settings: human NaV1.8 HEK cells, Table 16 (first set of compounds)
How it was run: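 Automated whole-cell patch clamp on HEK cells precultured at 30 °C one day before recording; CsF-based internal, 140 mM NaCl external. 10-point curve, 20–0.001 μM final, 0.1% DMSO, 5 min exposure. IC50 for resting (P1, −120 mV hold) and inactivated (P2, after 10 s at −40 mV) block, normalized to 250 μM tetracaine and DMSO.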

[1] = inactivated state block (P2 measurement), read-out: P2IC50
[2] = resting state block (P1 measurement), read-out: P1IC50

T1 sequence (Q9Y5Y9 whole entry): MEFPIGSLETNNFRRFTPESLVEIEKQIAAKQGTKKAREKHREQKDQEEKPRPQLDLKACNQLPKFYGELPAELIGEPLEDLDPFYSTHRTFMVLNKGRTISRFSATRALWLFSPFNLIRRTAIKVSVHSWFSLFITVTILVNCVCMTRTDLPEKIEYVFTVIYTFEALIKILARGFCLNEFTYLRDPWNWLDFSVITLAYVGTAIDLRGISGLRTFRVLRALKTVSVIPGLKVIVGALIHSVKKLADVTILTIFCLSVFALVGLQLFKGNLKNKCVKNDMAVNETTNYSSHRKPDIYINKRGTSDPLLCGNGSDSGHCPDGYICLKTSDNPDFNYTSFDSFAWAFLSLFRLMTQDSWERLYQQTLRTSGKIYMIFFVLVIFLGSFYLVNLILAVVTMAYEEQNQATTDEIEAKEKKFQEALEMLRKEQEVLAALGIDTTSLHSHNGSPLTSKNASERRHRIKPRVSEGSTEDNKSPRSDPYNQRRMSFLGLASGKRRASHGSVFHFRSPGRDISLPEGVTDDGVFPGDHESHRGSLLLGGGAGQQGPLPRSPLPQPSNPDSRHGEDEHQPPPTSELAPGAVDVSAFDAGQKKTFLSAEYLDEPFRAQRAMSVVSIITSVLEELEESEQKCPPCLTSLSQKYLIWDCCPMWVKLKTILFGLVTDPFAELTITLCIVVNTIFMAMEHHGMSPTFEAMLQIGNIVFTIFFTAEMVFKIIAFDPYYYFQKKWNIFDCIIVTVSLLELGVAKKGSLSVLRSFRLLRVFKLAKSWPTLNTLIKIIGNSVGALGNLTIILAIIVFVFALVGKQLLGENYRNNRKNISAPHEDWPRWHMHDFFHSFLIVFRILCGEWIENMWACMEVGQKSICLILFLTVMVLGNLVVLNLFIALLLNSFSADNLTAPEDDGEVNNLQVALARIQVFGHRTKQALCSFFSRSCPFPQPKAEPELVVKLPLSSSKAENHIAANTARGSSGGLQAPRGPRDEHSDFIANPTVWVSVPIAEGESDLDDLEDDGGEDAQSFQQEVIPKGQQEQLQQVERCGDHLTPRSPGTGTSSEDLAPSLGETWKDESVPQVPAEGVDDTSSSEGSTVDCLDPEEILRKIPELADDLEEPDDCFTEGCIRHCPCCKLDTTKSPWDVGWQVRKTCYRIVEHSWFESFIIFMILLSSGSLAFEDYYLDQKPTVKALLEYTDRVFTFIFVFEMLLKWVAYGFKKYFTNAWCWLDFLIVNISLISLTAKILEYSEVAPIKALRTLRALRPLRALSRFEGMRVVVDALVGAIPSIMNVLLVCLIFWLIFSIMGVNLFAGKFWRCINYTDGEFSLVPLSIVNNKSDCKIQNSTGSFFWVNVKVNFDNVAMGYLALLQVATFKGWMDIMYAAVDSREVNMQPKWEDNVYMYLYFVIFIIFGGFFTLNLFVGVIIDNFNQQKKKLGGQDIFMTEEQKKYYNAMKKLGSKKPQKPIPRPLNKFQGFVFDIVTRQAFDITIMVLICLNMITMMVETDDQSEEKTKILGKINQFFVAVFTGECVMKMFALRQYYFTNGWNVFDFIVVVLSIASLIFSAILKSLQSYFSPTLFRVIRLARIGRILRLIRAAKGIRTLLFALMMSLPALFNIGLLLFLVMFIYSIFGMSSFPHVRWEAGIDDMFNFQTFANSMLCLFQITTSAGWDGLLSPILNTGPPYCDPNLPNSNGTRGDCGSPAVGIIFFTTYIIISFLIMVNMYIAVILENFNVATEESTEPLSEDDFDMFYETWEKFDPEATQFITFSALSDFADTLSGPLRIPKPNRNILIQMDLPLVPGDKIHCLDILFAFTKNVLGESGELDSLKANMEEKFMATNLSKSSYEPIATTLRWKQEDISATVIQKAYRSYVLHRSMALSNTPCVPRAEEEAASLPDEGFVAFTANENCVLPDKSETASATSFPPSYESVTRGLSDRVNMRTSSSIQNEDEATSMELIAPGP

For `COc1c(Oc2nnc3c(c2C(=O)Nc2cccc(S(C)(=N)=O)c2)CCC3)ccc(F)c1F` (centres unmarked) [Compound 1516, 3-(3,4-difluoro-2-methoxyphenoxy)-N-{3-[imino(methyl)oxo-λ^6-sulfanyl]phenyl}-5H,6H,7H-cyclopenta[c]pyridazine-4-carboxamide], which IC50 [1] is on record?
Its IC50 is 200 to 500 nM.

And the IC50 [2]?
The IC50 was 200 to 500 nM.

For `COc1cc(F)c(Oc2ncc(C(F)(F)F)cc2C(=O)Nc2cccc(S(C)(=N)=O)c2)cc1F` (centres unmarked) [Compound 1637], which IC50 [1] is on record?
Its IC50 is 200 to 500 nM.

And the IC50 [2]?
Its IC50 is 200 to 500 nM.

Which IC50 [1] does the source give for `CS(=N)(=O)c1cccc(NC(=O)c2cc(C(F)(F)F)cnc2Oc2ccc(C(F)(F)F)cc2)c1` (centres unmarked) [Compound 1564, N-[3-(methylsulfonimidoyl)phenyl]-5-(trifluoromethyl)-2-[4-(trifluoromethyl)phenoxy]pyridine-3-carboxamide] here?
Its IC50 is 40 to 200 nM.

And the IC50 [2]?
Its IC50 is 20 to 40 nM.

How did the IC50 [1] turn out when `CN=S(C)(=O)c1cccc(NC(=O)c2cc(C(F)(F)F)cnc2Oc2ccc(F)cc2C)c1` (centres unmarked) [Compound 1717, N-[3-(N,S-dimethylsulfonimidoyl)phenyl]-2-(4-fluoro-2-methyl-phenoxy)-5-(trifluoromethyl)pyridine-3-carboxamide] was run?
The IC50 was ≤ 20 nM.

What about the IC50 [2] of the same compound?
The IC50 was ≤ 20 nM.

Which IC50 [1] does the source give for `COc1cc(C)c(Oc2ncc(C(F)(F)F)cc2C(=O)Nc2cccc(S(C)(=N)=O)c2)cc1C#N` (centres unmarked) [Compound 1621] here?
Its IC50 is 200 to 500 nM.

What about the IC50 [2] of the same compound?
Its IC50 is 200 to 500 nM.

How did the IC50 [1] turn out when `COc1cc(C#N)ccc1Oc1ncc(C(F)(F)F)cc1C(=O)NC12CC(C(N)=O)(C1)C2` [Compound 1721, N-(3-carbamoyl-1-bicyclo[1.1.1]pentanyl)-2-(4-cyano-2-methoxy-phenoxy)-5-(trifluoromethyl)pyridine-3-carboxamide] was run?
The IC50 was 200 to 500 nM.

And the IC50 [2]?
Its IC50 is 200 to 500 nM.

Which results are given for `COc1nc(C2CC2)ccc1Oc1nnc(C(F)(F)F)c(C)c1C(=O)Nc1cccc(S(C)(=N)=O)c1` (centres unmarked) [Compound 1550, 3-[(6-cyclopropyl-2-methoxy-3-pyridyl)oxy]-5-methyl-N-[3-(methylsulfonimidoyl)phenyl]-6-(trifluoromethyl)pyridazine-4-carboxamide]?
IC50 [1]: ≤ 20 nM; IC50 [2]: ≤ 20 nM

Which results are given for `CC(C)Oc1ccc(Oc2ncc(C(F)(F)F)cc2C(=O)Nc2cccc(S(C)(=N)=O)c2)c(F)c1` (centres unmarked) [Compound 1706]?
IC50 [1]: 200 to 500 nM; IC50 [2]: 200 to 500 nM

Which results are given for `COc1cc(C#N)ccc1Oc1nnc(-c2ccc(C(F)F)cc2)c(C)c1C(=O)Nc1cccc([S@@](C)(=N)=O)c1` [Compound 1533, 3-(4-cyano-2-methoxyphenoxy)-6-[4-(difluoromethyl)phenyl]-N-{3-[(S)-imino(methyl)oxo-λ^6-sulfanyl]phenyl}-5-methylpyridazine-4-carboxamide]?
IC50 [1]: 20 to 40 nM; IC50 [2]: 20 to 40 nM

For `COc1c(Oc2ncc(C(F)(F)F)cc2C(=O)Nc2cccc(C(N)=O)c2)ccc(F)c1F` [Compound 1619], which IC50 [1] is on record?
Its IC50 is ≤ 20 nM.

And the IC50 [2]?
Its IC50 is ≤ 20 nM.

With `Cc1c(C#N)ccc(Oc2ncc(C(F)(F)F)cc2C(=O)Nc2cccc(C(N)=O)c2)c1F` [Compound 1697] as the compound, how does the IC50 [1] read?
Its IC50 is 20 to 40 nM.

And the IC50 [2]?
Its IC50 is 20 to 40 nM.

Which IC50 [1] does the source give for `COc1cc(C#N)ccc1Oc1ncc(C23CCOCC2C3)cc1C(=O)Nc1cccc(S(C)(=N)=O)c1` (centres unmarked) [Compound 1725, 2-(4-cyano-2-methoxy-phenoxy)-N-[3-(methylsulfonimidoyl)phenyl]-5-(3-oxabicyclo[4.1.0]heptan-6-yl)pyridine-3-carboxamide] here?
The IC50 was 200 to 500 nM.

What about the IC50 [2] of the same compound?
The IC50 was 200 to 500 nM.

`CS(=O)(=O)c1cccc(NC(=O)c2cc(C(F)(F)F)cnc2Oc2ccc3c(c2)CC(=O)N3)c1` [Compound 1598] was tested. Which IC50 [1] did it give?
Its IC50 is 200 to 500 nM.

What about the IC50 [2] of the same compound?
Its IC50 is 200 to 500 nM.

With `Cc1c(C(F)(F)F)nnc(Oc2ccc(OC3CCC3)c(F)c2F)c1C(=O)Nc1cccc(S(C)(=N)=O)c1` (centres unmarked) [Compound 1492, 3-[4-(cyclobutoxy)-2,3-difluoro-phenoxy]-5-methyl-N-[3-(methylsulfonimidoyl)phenyl]-6-(trifluoromethyl)pyridazine-4-carboxamide] as the compound, how does the IC50 [1] read?
The IC50 was ≤ 20 nM.

And the IC50 [2]?
Its IC50 is ≤ 20 nM.

For `COc1cc(C#N)ccc1Oc1nnc(-c2ccc(C(F)F)cc2)c(C)c1C(=O)Nc1cccc([S@](C)(=N)=O)c1` [Compound 1534, 3-(4-cyano-2-methoxyphenoxy)-6-[4-(difluoromethyl)phenyl]-N-{3-[(R)-imino(methyl)oxo-λ^6-sulfanyl]phenyl}-5-methylpyridazine-4-carboxamide], which IC50 [1] is on record?
Its IC50 is 20 to 40 nM.

And the IC50 [2]?
The IC50 was 20 to 40 nM.

How did the IC50 [1] turn out when `NC(=O)c1cccc(NC(=O)c2cc(C(F)(F)F)cnc2Oc2ccc(C(F)F)nc2)c1` [Compound 1675] was run?
Its IC50 is 200 to 500 nM.

What about the IC50 [2] of the same compound?
Its IC50 is 200 to 500 nM.

Which results are given for `Cc1cc(F)ccc1Oc1nnc(N2CC(F)C2)c(C)c1C(=O)Nc1cccc(S(C)(=N)=O)c1` (centres unmarked) [Compound 1431, 6-(3-Fluoroazetidin-1-yl)-3-(4-fluoro-2-methyl-phenoxy)-5-methyl-N-[3-(methylsulfonimidoyl)phenyl]pyridazine-4-carboxamide]?
IC50 [1]: 200 to 500 nM; IC50 [2]: 200 to 500 nM

Which IC50 [1] does the source give for `Cc1c(Oc2ncc(C(F)(F)F)cc2C(=O)Nc2cccc(S(C)(=N)=O)c2)ccc(OC(F)(F)F)c1F` (centres unmarked) [Compound 1712] here?
Its IC50 is ≤ 20 nM.

And the IC50 [2]?
Its IC50 is ≤ 20 nM.

`COc1cc(F)ccc1Oc1ncc(C(F)(F)F)cc1C(=O)Nc1cccc(S(C)(=O)=O)c1` [Compound 1575] was tested. Which IC50 [1] did it give?
The IC50 was ≤ 20 nM.

And the IC50 [2]?
Its IC50 is ≤ 20 nM.

What does the source list for `COc1cc(C#N)ccc1Oc1nnc(-c2cnc(C(F)(F)F)s2)c(C)c1C(=O)Nc1cccc(S(C)(=N)=O)c1` (centres unmarked) [Compound 1459, 3-(4-cyano-2-methoxy-phenoxy)-5-methyl-N-[3-(methylsulfonimidoyl)phenyl]-6-[2-(trifluoromethyl)thiazol-5-yl]pyridazine-4-carboxamide]?
IC50 [1]: ≤ 20 nM; IC50 [2]: ≤ 20 nM

For `COc1cc(C#N)ccc1Oc1nnc(C(F)(F)F)c(C)c1C(=O)Nc1cccc([S@](C)(=N)=O)c1` (single isomer, unassigned) [Compound 1480], which IC50 [1] is on record?
The IC50 was ≤ 20 nM.

What about the IC50 [2] of the same compound?
Its IC50 is ≤ 20 nM.

What does the source list for `Cc1c(C(F)(F)F)nnc(OCC23CC(F)(C2)C3)c1C(=O)Nc1cccc(S(C)(=N)=O)c1` (centres unmarked) [Compound 1470, 3-[(3-fluoro-1-bicyclo[1.1.1]pentanyl)methoxy]-5-methyl-N-[3-(methylsulfonimidoyl)phenyl]-6-(trifluoromethyl)pyridazine-4-carboxamide]?
IC50 [1]: 200 to 500 nM; IC50 [2]: 200 to 500 nM

What does the source list for `COc1cc(C#N)ccc1Oc1nnc(-c2ccc(C)cc2)c(C)c1C(=O)Nc1cccc(S(C)(=N)=O)c1` (centres unmarked) [Compound 1450, 3-(4-cyano-2-methoxy-phenoxy)-5-methyl-N-[3-(methylsulfonimidoyl)phenyl]-6-(p-tolyl)pyridazine-4-carboxamide]?
IC50 [1]: ≤ 20 nM; IC50 [2]: ≤ 20 nM

What does the source list for `Cc1nc(OC2CCC2)ccc1Oc1nnc(C(F)(F)F)c(C)c1C(=O)Nc1cccc(S(C)(=N)=O)c1` (centres unmarked) [Compound 1498, 3-[(6-cyclobutoxy-2-methylpyridin-3-yl)oxy]-N-{3-[imino(methyl)oxo-λ^6-sulfanyl]phenyl}-5-methyl-6-(trifluoromethyl)pyridazine-4-carboxamide]?
IC50 [1]: 40 to 200 nM; IC50 [2]: 40 to 200 nM

What does the source list for `COc1cc(C#N)ccc1Oc1nccc(C(F)(F)F)c1C(=O)Nc1cccc(S(C)(=N)=O)c1` (centres unmarked) [Compound 1653]?
IC50 [1]: 40 to 200 nM; IC50 [2]: 40 to 200 nM

What does the source list for `COc1cc(C#N)ccc1Oc1nnc(C(F)(F)F)c(C)c1C(=O)Nc1cccc(C#N)c1` [Compound 1548, 3-(4-cyano-2-methoxy-phenoxy)-N-(3-cyanophenyl)-5-methyl-6-(trifluoromethyl)pyridazine-4-carboxamide]?
IC50 [1]: 20 to 40 nM; IC50 [2]: 20 to 40 nM

What does the source list for `CS(=N)(=O)c1cccc(NC(=O)c2cc(C(F)(F)F)cnc2OC2CC3(C2)CC(F)(F)C3)c1` (centres unmarked) [Compound 1632]?
IC50 [1]: 200 to 500 nM; IC50 [2]: 200 to 500 nM

`COc1cc(C#N)ccc1Oc1nnc(C(F)(F)F)c(C)c1C(=O)Nc1cccc(S(C)(=N)=O)c1` (centres unmarked) [Compound 25] was tested. Which IC50 [1] did it give?
Its IC50 is ≤ 20 nM.

What about the IC50 [2] of the same compound?
The IC50 was ≤ 20 nM.

`COc1cc(C#N)ccc1Oc1nc(C(F)(F)F)nc(C)c1C(=O)Nc1ccc(C(N)=O)cc1` [Compound 1744, N-(4-carbamoylphenyl)-4-(4-cyano-2-methoxy-phenoxy)-6-methyl-2-(trifluoromethyl)pyrimidine-5-carboxamide] was tested. Which IC50 [1] did it give?
Its IC50 is 40 to 200 nM.

What about the IC50 [2] of the same compound?
The IC50 was 40 to 200 nM.

Which IC50 [1] does the source give for `COc1ccc(-c2nnc(Oc3ccc(C#N)cc3OC)c(C(=O)Nc3cccc([S@](C)(=N)=O)c3)c2C)cc1` [Compound 1535, 3-(4-cyano-2-methoxyphenoxy)-N-{3-[(R)-imino(methyl)oxo-λ^6-sulfanyl]phenyl}-6-(4-methoxyphenyl)-5-methylpyridazine-4-carboxamide] here?
Its IC50 is 20 to 40 nM.

And the IC50 [2]?
The IC50 was 20 to 40 nM.

What does the source list for `CS(=O)(=O)c1cccc(NC(=O)c2cc(C(F)(F)F)cnc2Oc2ccc(OC(F)F)cc2)c1` [Compound 1563, 2-[4-(difluoromethoxy)phenoxy]-N-(3-methylsulfonylphenyl)-5-(trifluoromethyl)pyridine-3-carboxamide]?
IC50 [1]: 20 to 40 nM; IC50 [2]: 20 to 40 nM

Which IC50 [1] does the source give for `COc1cc(C#N)ccc1Oc1nnc(C(F)(F)F)c(C)c1C(=O)Nc1ccc(OC)c(C(N)=O)c1` [Compound 1541, N-(3-carbamoyl-4-methoxy-phenyl)-3-(4-cyano-2-methoxy-phenoxy)-5-methyl-6-(trifluoromethyl)pyridazine-4-carboxamide] here?
The IC50 was 200 to 500 nM.

And the IC50 [2]?
Its IC50 is 200 to 500 nM.

With `Cc1cc(F)ccc1Oc1nccc(C(F)(F)F)c1C(=O)Nc1cccc(S(C)(=N)=O)c1` (centres unmarked) [Compound 1650] as the compound, how does the IC50 [1] read?
The IC50 was 40 to 200 nM.

What about the IC50 [2] of the same compound?
The IC50 was 40 to 200 nM.

What does the source list for `COc1cc(C#N)ccc1Oc1nnc(-c2ccc(C#N)cc2)c(C)c1C(=O)Nc1cccc([S@@](C)(=N)=O)c1` [Compound 1532, 3-(4-cyano-2-methoxyphenoxy)-6-(4-cyanophenyl)-N-{3-[(S)-imino(methyl)oxo-λ^6-sulfanyl]phenyl}-5-methylpyridazine-4-carboxamide]?
IC50 [1]: 40 to 200 nM; IC50 [2]: 40 to 200 nM
